According to patent publication US6878705B2 (dated 2005):

SMILES	melting point
Cn1cc(C(=O)NCc2ccc(Cl)cc2)c(=O)c2cc(CN3CCOCC3)oc21	211 to 212 °C
CN(Cc1cc2c(=O)c(C(=O)NCc3ccc(C(F)(F)F)cc3)cn(C)c2o1)C[C@@H](O)c1ccco1	113 to 115 °C
O=C(NCc1ccc(Cl)cc1)c1cn(CCc2ccccc2)c2oc(CN3CCOCC3)cc2c1=O	150 to 153 °C
CCN(CC)CCn1cc(C(=O)NCc2ccc(Cl)cc2)c(=O)c2cc(CN3CCOCC3)oc21	131 to 134 °C
CC(O)CNCc1cc2c(=O)c(C(=O)NCc3ccc(Cl)cc3)cn(C)c2o1 (stereo not shown)	172 to 173 °C
CC(O)CN(C)Cc1cc2c(=O)c(C(=O)NCc3ccc(Cl)cc3)cn(C)c2o1 (stereo not shown)	152 °C
Cn1cc(C(=O)NCc2ccc(Cl)cc2)c(=O)c2cc(CN3CC[C@@H](O)C3)oc21	189 to 190 °C
CN(Cc1cc2c(=O)c(C(=O)NCc3ccc(Cl)cc3)cn(C)c2o1)CC(O)c1ccccc1 (stereo not shown)	118 to 121 °C
CN(Cc1cc2c(=O)c(C(=O)NCc3ccc(Cl)cc3)cn(C)c2o1)CC(O)c1ccc(O)cc1 (stereo not shown)	117 to 122 °C
COc1cccc(C(O)CN(C)Cc2cc3c(=O)c(C(=O)NCc4ccc(Cl)cc4)cn(C)c3o2)c1 (stereo not shown)	116 to 120 °C
CN(Cc1cc2c(=O)c(C(=O)NCc3ccc(Cl)cc3)cn(C)c2o1)CC(O)c1cccnc1 (stereo not shown)	145 to 149 °C
Cc1ccc(C(O)CN(C)Cc2cc3c(=O)c(C(=O)NCc4ccc(Cl)cc4)cn(C)c3o2)o1 (stereo not shown)	130 to 132 °C
CN(Cc1cc2c(=O)c(C(=O)NCc3ccc(Cl)cc3)cn(C)c2o1)CC(O)c1ccoc1 (stereo not shown)	93 to 97 °C
CN(Cc1cc2c(=O)c(C(=O)NCc3ccc(Cl)cc3)cn(C)c2o1)CC(O)c1cc2ccccc2o1 (stereo not shown)	176 to 179 °C
CN(Cc1cc2c(=O)c(C(=O)NCc3ccc(Cl)cc3)cn(C)c2o1)CC(O)c1cccs1 (stereo not shown)	145 to 147 °C
CN(Cc1cc2c(=O)c(C(=O)NCc3ccc(Cl)cc3)cn(C)c2o1)CC(O)c1ccc2ccccc2n1 (stereo not shown)	154 to 159 °C (dec.)
CN(Cc1cc2c(=O)c(C(=O)NCc3ccc(Cl)cc3)cn(C)c2o1)CC(O)c1cccn1C (stereo not shown)	122 to 124 °C (dec.)
CN(Cc1cc2c(=O)c(C(=O)NCc3ccc(Cl)cc3)cn(C)c2o1)CC(O)c1ccc(C#N)s1 (stereo not shown)	190 to 195 °C (dec.)
CN(Cc1cc2c(=O)c(C(=O)NCc3ccc(Cl)cc3)cn(C)c2o1)CC(O)c1nccs1 (stereo not shown)	114 to 116 °C

SMILES	melting point
CN(Cc1cc2c(=O)c(C(=O)NCc3ccc(Cl)cc3)cn(C)c2o1)CC(O)c1ccc(-c2ccccc2)o1 (stereo not shown)	115 to 119 °C
Cc1cc(C(O)CN(C)Cc2cc3c(=O)c(C(=O)NCc4ccc(Cl)cc4)cn(C)c3o2)oc1C (stereo not shown)	140 to 140.5 °C
CN(Cc1cc2c(=O)c(C(=O)NCc3ccc(Cl)cc3)cn(C)c2o1)CC(O)c1cnccn1 (stereo not shown)	148 to 151 °C
CN(Cc1cc2c(=O)c(C(=O)NCc3ccc(Cl)cc3)cn(C)c2o1)C[C@@H](O)c1ncccn1	127 to 129 °C
CN(Cc1cc2c(=O)c(C(=O)NCc3ccc(Cl)cc3)cn(C)c2o1)CC(CO)c1ccccc1 (stereo not shown)	141 to 148 °C
Cn1cc(C(=O)NCc2ccc(Cl)cc2)c(=O)c2ccoc21	197 to 205 °C
Cn1cc(C(=O)NCc2ccc(Cl)cc2)c(=O)c2cc(Br)oc21	232 to 233 °C
Cn1cc(C(=O)NCc2ccc(Cl)cc2)c(=O)c2cc(C#CCCO)oc21	242 to 243 °C (dec.)
Cn1cc(C(=O)NCc2ccc(Cl)cc2)c(=O)c2cc(CCCCO)oc21	157 to 160 °C
Cn1cc(C(=O)NCc2ccc(Cl)cc2)c(=O)c2cc(C#CCCCO)oc21	215 to 219 °C (dec.)
Cn1cc(C(=O)NCc2ccc(Cl)cc2)c(=O)c2cc(CCCCCO)oc21	151 to 152 °C
Cn1cc(C(=O)NCc2ccc(Cl)cc2)c(=O)c2cc(C#CC(O)c3ccccc3)oc21 (stereo not shown)	209 to 211 °C (dec.)
Cn1cc(C(=O)NCc2ccc(Cl)cc2)c(=O)c2cc(C#CCC(O)c3ccccc3)oc21 (stereo not shown)	202 to 203 °C (dec.)
Cn1cc(C(=O)NCc2ccc(Cl)cc2)c(=O)c2cc(CO)oc21	229 to 230 °C
O=C(NCc1ccc(Cl)cc1)c1cc2c(O)c(C(=O)NCc3ccc(Cl)cc3)cnc2o1	230 to 245 °C
Cn1cc(C(=O)NCc2ccc(Cl)cc2)c(=O)c2cc(CN3CCC[C@@H]3[C@@H](O)c3ccccc3)oc21 (relative stereo)	141 to 150 °C (dec.)
CN(Cc1cc2c(=O)c(C(=O)NCc3ccc(Cl)cc3)cn(C)c2o1)CC(O)c1ccccn1 (stereo not shown) [41]	130 to 132 °C
CN(Cc1cc2c(=O)c(C(=O)NCc3ccc(Cl)cc3)cn(C)c2o1)CC(O)c1ccccn1 (stereo not shown) [42]	133 to 138 °C
